Test results from PMC10223470 (Molecules, 2023).

Experiments:
[1] = target: T1, human dopamine D1 receptor (Homo sapiens, UniProt P21728); test: Competition radioligand binding at human D1 receptor ([3H]-SCH-23390); settings: mean ± SEM of 2 independent experiments, read-out: huD1 % inh. at 10 µM
T1 construct: expressed in transfected cells; host or cells: CHO-K1
Experimental: Competition radioligand binding assays were performed on membranes isolated from cell lines stably expressing the cloned human receptors, which were either in-house or commercially available. […] Assays (250 μL assay final volume) were carried out in 96-well polypropylene plates in duplicate. In short, the suspension of appropriate membrane protein was incubated in an assay buffer with the addition of the corresponding radioligand, in the presence or absence of a tested compound or reference compound. […] After the incubation, the content of the test plates was transferred to 96 well plates with glass fiber filter GF/B or GF/C, previously pretreated with polyethyleneimine (PEI), and rapidly filtered with the use of vacuum, followed by rapid washing with cold (4 °C) wash buffer. After that, the filter plates were dried at 60 °C for 1 h. Then, 30 μL of liquid scintillation cocktail (UniverSol-ES, MP Biomedicals, Solon, OH, USA) was added to each well of the filter plates, and the radioactivity was measured in a MicroBeta^2 microplate scintillation counter (PerkinElmer, Madrid, Spain).
Competition binding curves were fitted to a one-site competition binding model (Fit Ki) with the use of Prism 7 software (GraphPad, San Diego, CA, USA). logKi (log of the equilibrium dissociation constant (Ki)) values were obtained after constraining the concentration of radioligand employed in the assay and its dissociation constant (KD) as determined in saturation radioligand binding assays.

human D2S receptor = target: T2, human D2S receptor (Homo sapiens, UniProt P14416); test: Functional assays of cAMP signalling at D2 receptors (CHO-K1 cells, HTRF); assay type: cell-based
T2 construct: expressed in transfected cells; host or cells: CHO-K1
T2 sequence (P14416 1-414 isoform P14416-2): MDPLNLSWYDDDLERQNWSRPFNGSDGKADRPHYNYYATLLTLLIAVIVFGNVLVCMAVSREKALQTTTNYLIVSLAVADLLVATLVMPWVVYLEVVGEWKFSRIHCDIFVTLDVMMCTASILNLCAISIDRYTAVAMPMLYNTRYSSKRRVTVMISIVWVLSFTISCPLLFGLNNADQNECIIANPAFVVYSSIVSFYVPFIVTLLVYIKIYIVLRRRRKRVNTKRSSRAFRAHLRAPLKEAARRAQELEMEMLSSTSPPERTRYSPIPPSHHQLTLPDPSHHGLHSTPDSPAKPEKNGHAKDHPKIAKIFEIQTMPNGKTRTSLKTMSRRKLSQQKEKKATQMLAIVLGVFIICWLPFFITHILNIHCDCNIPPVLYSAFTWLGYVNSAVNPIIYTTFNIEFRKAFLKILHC
Experimental: The assessment of the activity of selected compounds at the D2 receptor was performed in cell-based functional assays of cAMP signaling, in the CHO-K1 cell line with stable expression of the cloned human D2S receptor, which was also employed for the radioligand binding assays. For D2 receptor antagonism, test compounds were dispensed into an empty 96-well plate (Isoplate-96 Black Frame White Well, PerkinElmer España SL, Madrid, Spain) with the use of the dispensing noncontact Echo 550 acoustic liquid handler (LABCYTE Inc., San Jose, CA, USA). Compounds were handled from frozen 10^−2 M stock solutions in 100% DMSO, from which serial 1000× solutions were prepared in 100% DMSO at the time of the assay, keeping vehicle concentration (0.1% DMSO) constant in the assay. Vials containing viable frozen cells were quickly thawed in a 37 °C water bath and cells were seeded into the assay plate in assay buffer (kit stimulation buffer containing 500 µM 3-isobutyl-1-methylxanthine (IBMX), which was directly added to the buffer as powder). […] After 10 min incubation at 37 °C, 10 µM forskolin was added to the corresponding wells, and incubation was continued for 5 min. After this time, cellular cAMP levels were quantified using the homogeneous time-resolved fluorescence (HTRF)-based cAMP Gs dynamic kit (Cisbio, Bioassays, Codolet, France) according to the manufacturer’s protocol. […] Basal cAMP levels were determined in control wells in the absence of compound, agonist, and forskolin.

mice [2] = test: Spontaneous locomotor activity in mice; assay type: in vivo; settings: for Distance Traveled after 10 min / Distance Traveled after 30 min: mean ± SEM, n=10
Experimental: (§1) The experiments were carried out on 6 weeks old naive Swiss male mice (Experimental Medicine Center (OMD), Lublin, Poland), weighing 28–30 g. The cages with mice were located in air-conditioned rooms maintaining the ambient temperature within the range of 23–25 °C. The animals were provided with a natural 12 h day/night cycle, replicating the day and night mode. Each testing group was represented by 8–10 animals, depending on the research schedule. All experiments were conducted according to the National Institute of Health Guidelines for the Care and Use of Laboratory Animals (8th edition) and to the European Community Council Directive for the Care and Use of Laboratory Animals of 22 September 2010 (2010/63/EU) and were approved by the Local Ethical Committee (number of ethical approval: 147/2018).
(§2) Compound 17 (25, 50, 75 mg/kg) was suspended in 1% Tween 80 in saline solution and was administered intraperitoneally (i.p.) 60 min before the test. Diazepam (DZ, Relanium, Polfa, Poland) at a dose of 1 mg/kg was diluted in 0.9% saline containing 1% Tween 80 and was administered subcutaneously (s.c.), 60 min before the test. Imipramine hydrochloride (30 mg/kg, Sigma-Aldrich was administered intraperitoneally (i.p.) 60 min before the test. D-amphetamine sulfate (3 mg/kg; Sigma-Aldrich, USA) was given subcutaneously (s.c.). Prior to administration, the agent was dissolved in saline and injected 30 min before the test. Control animals received an (i.p.) or (s.c.) injection of a respective vehicle. All compounds were injected in a manner generally accepted in experimental pharmacology, in an amount of 10 mL/kg body weight.
(§3) The measurement of the spontaneous locomotor activity was carried out using the OptoVarimex 4 Auto-Track device (Columbus Instruments, Columbus, OH, USA). Tested animals are kept in cages for 30 min. Their activity was recorded as interruptions of the light beams after 10 and 30 min of the test, and it was calculated automatically as a traveled distance in cm (±SEM). To determine whether compound 17 has an influence on amphetamine-induced hyperactivity, each mouse received 17 (25, 50 and 75 mg/kg; i.p.) and amphetamine (3 mg/kg; s.c.) 30 min after injection of 17 or vehicle and then spontaneous locomotor activity was measured.

mice [3] = test: Amphetamine-induced hyperactivity in mice; assay type: in vivo; settings: amphetamine 3 mg/kg s.c.; for effect on amphetamine-induced hyperactivity after 10 min / effect on amphetamine-induced hyperactivity after 30 min: p < 0.05 vs amphetamine group
Experimental: as §1, §2, §3

[4] = 25 mg/kg i.p. 60 min before the test
[5] = 50 mg/kg i.p. 60 min before the test
[6] = 75 mg/kg i.p. 60 min before the test

T1 sequence (P21728 whole entry): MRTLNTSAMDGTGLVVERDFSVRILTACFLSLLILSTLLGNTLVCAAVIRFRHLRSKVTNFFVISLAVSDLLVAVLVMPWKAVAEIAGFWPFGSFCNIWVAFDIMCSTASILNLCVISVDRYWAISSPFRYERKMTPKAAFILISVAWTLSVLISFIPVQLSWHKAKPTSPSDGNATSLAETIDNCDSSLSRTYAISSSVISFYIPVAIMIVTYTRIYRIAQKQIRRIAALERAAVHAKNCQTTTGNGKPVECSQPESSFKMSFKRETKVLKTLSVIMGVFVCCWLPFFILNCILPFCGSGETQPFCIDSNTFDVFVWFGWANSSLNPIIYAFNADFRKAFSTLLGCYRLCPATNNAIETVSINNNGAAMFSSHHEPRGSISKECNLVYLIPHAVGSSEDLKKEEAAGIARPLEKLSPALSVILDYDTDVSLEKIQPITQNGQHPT

SMILES: O=C(CCN1C(=O)CSc2ccccc21)Nc1ccc(Cl)cc1 [Compound 17, N-(4-Chlorophenyl)-3-(3-oxo-2,3-dihydro-4H-benzo[b][1,4]thiazin-4-yl)propanamide]
- inhibition at 10 µM [1]: 21 ± 2%
- Kb (human D2S receptor; antagonism of 1 µM dopamine response, forskolin-stimulated cAMP, three independent experiments, read-out: D2 Signalling (cAMP) pKb (Mean ± SEM) (converted)): 26.9 nM
- efficacy at D2 receptor (mode of action) (human D2S receptor; cAMP signaling, CHO-K1 cells): antagonism
- Distance Traveled after 10 min (mice [2]; [4]): 910.1 ± 139.3 cm
- Distance Traveled after 30 min (mice [2]; [4]): 2003 ± 355.7 cm
- Distance Traveled after 10 min (mice [2]; [5]): 855.9 ± 195.1 cm
- Distance Traveled after 30 min (mice [2]; [5]): 2345 ± 616.0 cm
- Distance Traveled after 10 min (mice [2]; [6]): 1200 ± 216.0 cm
- Distance Traveled after 30 min (mice [2]; [6]): 2983 ± 595.8 cm
- effect on locomotor activity versus the control group (mice [2]; 25, 50 and 75 mg/kg i.p., after 10 min and after 30 min): no statistically significant effects
- effect on amphetamine-induced hyperactivity (mice [3]; 25 mg/kg i.p.): inactive
- effect on amphetamine-induced hyperactivity after 10 min (mice [3]; 50 mg/kg i.p.): decreased
- effect on amphetamine-induced hyperactivity after 30 min (mice [3]; 50 mg/kg i.p.): decreased
- effect on amphetamine-induced hyperactivity after 10 min (mice [3]; 75 mg/kg i.p.): decreased
- effect on amphetamine-induced hyperactivity after 30 min (mice [3]; 75 mg/kg i.p.): decreased
